Experimental findings from patent US7279444B2, “Substituted benzoylpyrazoles” (Bayer CropScience GmbH, priority 1999, dated 2007) are described below.

Marks after values point to notes of the source that are not given here.

The data set is described as follows: log P by HPLC on reversed-phase column (C 18), acidic range. It is filed as physicochemical. The protocol: Temperature: 43° C. […] The log P values given in Table 3 were determined in accordance with EEC Directive 79/831 Annex V.A8 by HPLC (High Performance Liquid Chromatography) on a reversed-phase column (C 18). Temperature: 43° C. […] The log P values given in Tables 4 were determined in accordance with EEC Directive 79/831 Annex V.A8 by HPLC (High Performance Liquid Chromatography) on a reversed-phase column (C 18). Temperature: 43° C.

As for `CCn1ncc(C(=O)c2ccc(F)c(Cn3nc(OC)n(C)c3=O)c2Cl)c1O` [Example 71], the logP entry is listed as “logP = 1.55^a)”. Then `CCn1ncc(C(=O)c2ccc(F)c(Cn3nc(N(C)C)n(C)c3=O)c2Cl)c1O` [Example 72], with “logP = 1.62^a)”; and `CCn1ncc(C(=O)c2ccc(Cl)c(CN3CCN(C)C3=O)c2Cl)c1O` [ID-1], with “logP = 1.64^a)”; and `CCn1ncc(C(=O)c2ccc(Cl)c(CN3CCCN(C)C3=O)c2Cl)c1O` [ID-2], with “logP = 1.77^a)”. Then `CN1CCCN(Cc2c(Cl)ccc(C(=O)c3cnn(C)c3O)c2Cl)C1=O` [ID-3], with “logP = 1.52^a)”; and `Cc1nn(C)c(O)c1C(=O)c1ccc(Cl)c(CN2CCCN(C)C2=O)c1Cl` [ID-4], with “logP = 1.50^a)”; and `CCn1nc(C)c(C(=O)c2ccc(Cl)c(CN3CCCN(C)C3=O)c2Cl)c1O` [ID-5], with “logP = 1.72^a)”. Then `Cc1nn(C(C)(C)C)c(O)c1C(=O)c1ccc(Cl)c(CN2CCCN(C)C2=O)c1Cl` [ID-6], with “logP = 3.01^a)”. Take `CCn1ncc(C(=O)c2ccc(C(F)(F)F)cc2Cn2nc(SC)sc2=O)c1O` [ID-7]: the logP result is recorded as “logP = 2.98^a)”.

Regarding `CCn1ncc(C(=O)c2ccc(C(F)(F)F)cc2Cn2cc(Cl)cc(Cl)c2=O)c1O` [ID-8], the logP entry is listed as “logP = 2.75^a)”. With `CCOc1nn(Cc2cc(C(F)(F)F)ccc2C(=O)c2cnn(CC)c2OS(=O)(=O)c2ccc(C)cc2)c(=O)n1C` [ID-9], the logP result was “logP = 3.82^a)”. `CCn1ncc(C(=O)c2ccc(C(F)(F)F)cc2Cn2nc(SC)n(C)c2=O)c1OS(=O)(=O)c1ccc(C)cc1` [ID-10]: the logP entry was “logP = 3.73^a)”. Then `CCOc1nn(Cc2cc(C(F)(F)F)ccc2C(=O)c2cnn(CC)c2OS(C)(=O)=O)c(=O)n1C` [ID-11], with “logP = 3.25^a)”; and `CCn1ncc(C(=O)c2ccc(C(F)(F)F)cc2Cn2nc(SC)n(C)c2=O)c1OS(C)(=O)=O` [ID-12], with “logP = 2.82^a)”; and `CCOc1nn(Cc2cc(C(F)(F)F)ccc2C(=O)c2cnn(CC)c2OC)c(=O)n1C` [ID-13], with “logP = 2.74^a)”. Then `CCOc1c(C(=O)c2ccc(C(F)(F)F)cc2Cn2nc(OCC)n(C)c2=O)cnn1CC` [ID-14], with “logP = 2.82^a)”. Then `CCOc1nn(Cc2cc(C(F)(F)F)ccc2C(=O)c2cnn(CC)c2OC(C)C)c(=O)n1C` [ID-15], with “logP = 3.11^a)”. As for `C=CCOc1c(C(=O)c2ccc(C(F)(F)F)cc2Cn2nc(OCC)n(C)c2=O)cnn1CC` [ID-16], the logP result was “logP = 2.99^a)”. For `CCOc1nn(Cc2cc(C(F)(F)F)ccc2C(=O)c2cnn(CC)c2OCc2ccccc2)c(=O)n1C` [ID-17] the value was “logP = 3.45^a)”; for `CCOc1nn(Cc2cc(C(F)(F)F)ccc2C(=O)c2cnn(CC)c2OCc2ccc(C)cc2)c(=O)n1C` [ID-18], “logP = 3.79^a)”; for `CCOc1nn(Cc2cc(C(F)(F)F)ccc2C(=O)c2cnn(CC)c2OCc2ccc(Br)cc2)c(=O)n1C` [ID-19], “logP = 3.97^a)”. With `CCOc1nn(Cc2cc(C(F)(F)F)ccc2C(=O)c2cnn(CC)c2OCc2ccc(C#N)cc2)c(=O)n1C` [ID-20], the logP result is given as “logP = 3.12^a)”. Then `CCOc1nn(Cc2cc(C(F)(F)F)ccc2C(=O)c2cnn(CC)c2OCc2ccc(F)cc2)c(=O)n1C` [ID-21], with “logP = 3.49^a)”; and `CCOc1nn(Cc2cc(C(F)(F)F)ccc2C(=O)c2cnn(CC)c2OCc2ccc(Cl)cc2)c(=O)n1C` [ID-22], with “logP = 3.85^a)”; and `CCOc1nn(Cc2cc(C(F)(F)F)ccc2C(=O)c2cnn(CC)c2OCc2ccc(Cl)c(Cl)c2)c(=O)n1C` [ID-23], with “logP = 4.26^a)”. For `CCOc1nn(Cc2cc(C(F)(F)F)ccc2C(=O)c2cnn(CC)c2OCc2cccc(Cl)c2)c(=O)n1C` [ID-24] the value was “logP = 3.84^a)”. As to `CCOc1nn(Cc2cc(C(F)(F)F)ccc2C(=O)c2cnn(CC)c2OCc2ccc([N+](=O)[O-])cc2)c(=O)n1C` [ID-25], the logP entry is “logP = 3.33^a)”. For `CCOc1nn(Cc2cc(C(F)(F)F)ccc2C(=O)c2cnn(CC)c2OCc2ccc(C(F)(F)F)cc2)c(=O)n1C` [ID-26] the value was “logP = 3.98^a)”; for `CCOc1nn(Cc2cc(C(F)(F)F)ccc2C(=O)c2cnn(CC)c2OCc2cccc(C(F)(F)F)c2)c(=O)n1C` [ID-27], “logP = 3.94^a)”. For `CCn1ncc(C(=O)c2ccc(C(F)(F)F)cc2Cn2nc(SC)n(C)c2=O)c1OC` [ID-30] the value was “logP = 2.65^a)”; for `CCOc1c(C(=O)c2ccc(C(F)(F)F)cc2Cn2nc(SC)n(C)c2=O)cnn1CC` [ID-31], “logP = 2.71^a)”; for `CCn1ncc(C(=O)c2ccc(C(F)(F)F)cc2Cn2nc(SC)n(C)c2=O)c1OC(C)C` [ID-32], “logP = 3.00^a)”. For `C=CCOc1c(C(=O)c2ccc(C(F)(F)F)cc2Cn2nc(SC)n(C)c2=O)cnn1CC` [ID-33] the value was “logP = 2.89^a)”; for `CCn1ncc(C(=O)c2ccc(C(F)(F)F)cc2Cn2nc(SC)n(C)c2=O)c1OCc1ccccc1` [ID-34], “logP = 3.37^a)”; for `CCn1ncc(C(=O)c2ccc(C(F)(F)F)cc2Cn2nc(SC)n(C)c2=O)c1OCc1ccc(C)cc1` [ID-35], “logP = 3.71^a)”.

Consider `CCn1ncc(C(=O)c2ccc(C(F)(F)F)cc2Cn2nc(SC)n(C)c2=O)c1OCc1ccc(Br)cc1` [ID-36], for which the logP entry is recorded as “logP = 3.89^a)”. For `CCn1ncc(C(=O)c2ccc(C(F)(F)F)cc2Cn2nc(SC)n(C)c2=O)c1OCc1ccc(C#N)cc1` [ID-37] the value was “logP =3.06^a)”. Turning to `CCn1ncc(C(=O)c2ccc(C(F)(F)F)cc2Cn2nc(SC)n(C)c2=O)c1OCc1ccc(F)cc1` [ID-38], the logP result is “logP = 3.41^a)”. For `CCn1ncc(C(=O)c2ccc(C(F)(F)F)cc2Cn2nc(SC)n(C)c2=O)c1OCc1ccc(Cl)cc1` [ID-39] the value was “logP = 3.78^a)”; for `CCn1ncc(C(=O)c2ccc(C(F)(F)F)cc2Cn2nc(SC)n(C)c2=O)c1OCc1ccc(Cl)c(Cl)c1` [ID-40], “logP = 4.17^a)”. For `CCn1ncc(C(=O)c2ccc(C(F)(F)F)cc2Cn2nc(SC)n(C)c2=O)c1OCc1cccc(Cl)c1` [ID-41] the value was “logP = 3.76^a)”; for `CCn1ncc(C(=O)c2ccc(C(F)(F)F)cc2Cn2nc(SC)n(C)c2=O)c1OCc1ccc([N+](=O)[O-])cc1` [ID-42], “logP = 3.26^a)”; for `CCn1ncc(C(=O)c2ccc(C(F)(F)F)cc2Cn2nc(SC)n(C)c2=O)c1OCc1ccc(C(F)(F)F)cc1` [ID-43], “logP = 3.89^a)”. As for `CCn1ncc(C(=O)c2ccc(C(F)(F)F)cc2Cn2nc(SC)n(C)c2=O)c1OCc1cccc(C(F)(F)F)c1` [ID-44], the logP entry was “logP = 3.85^a)”. Then `CCn1ncc(C(=O)c2ccc(C(F)(F)F)cc2Cn2nc(SC)n(C)c2=O)c1OCC(=O)c1ccccc1` [ID-45], with “logP = 3.19^a)”. For `CCn1ncc(C(=O)c2ccc(C(F)(F)F)cc2Cn2nc(SC)n(C)c2=O)c1OCC(=O)c1ccc(C)cc1` [ID-46] the value was “logP = 3.47^a)”; for `CCn1ncc(C(=O)c2ccc(C(F)(F)F)cc2Cn2nc(SC)n(C)c2=O)c1OCC(=O)c1ccc(Cl)cc1` [ID-47], “logP = 3.64^a)”; for `CN1CCN(Cc2c(Cl)ccc(C(=O)c3cnn(C)c3O)c2Cl)C1=O` [ID-50], “logP = 1.41^a)”.
